# From US11066414B2, “Cot modulators and methods of use thereof” (Gilead Sciences, Inc., priority 2015, dated 2021)
# System: TNFα
# Assay: Cot Monocyte TNFα Cell Based Assay
# Conditions: Homo sapiens, Monocyte, read-out: EC50 TNF, LPS-stimulated human monocytes, TNFα
row,SMILES,EC50 [µM]
1,"N#Cc1cnc2c(Cl)cc(N[C@@H](c3cccnc3)c3cn(C4COC4)nn3)cc2c1N[C@@H](CCO)c1ccccc1 [Example 182, 8-chloro-4-(((S)-3-hydroxy-1-phenylpropyl)amino)-6-(((S)-(1-(oxetan-3-yl)-1H-1,2,3-triazol-4-yl)(pyridin-3-yl)methyl)amino)quinoline-3-carbonitrile]",1.04
2,"N#Cc1cnc2c(Cl)cc(N[C@H](c3cn(C4CC4)nn3)c3cnccc3Cl)cc2c1Nc1cnc(F)c(F)c1 [Example 133, (S)-8-chloro-6-(((4-chloropyridin-3-yl)(1-cyclopropyl-1H-1,2,3-triazol-4-yl)methyl)amino)-4-((5,6-difluoropyridin-3-yl)amino)quinoline-3-carbonitrile]",0.978
3,"Cc1ncccc1[C@H](Nc1cc(Cl)c2ncc(C#N)c(Nc3cccc(Cl)c3)c2c1)c1c[nH]nn1 [Example 224, (S)-8-chloro-4-((3-chlorophenyl)amino)-6-(((2-methylpyridin-3-yl)(1H-1,2,3-triazol-4-yl)methyl)amino)-quinoline-3-carbonitrile]",2.63
4,"Cc1nc(F)ccc1[C@H](Nc1cc(C#N)c2ncc(C#N)c(NC3CCCCC3)c2c1)c1cn(C2(C(F)(F)F)CC2)nn1 [Example 585, (S)-4-(cyclohexylamino)-6-(((6-fluoro-2-methylpyridin-3-yl)(1-(1-(trifluoromethyl)-cyclopropyl)-1H-1,2,3-triazol-4-yl)methyl)amino)quinoline-3,8-dicarbonitrile]",0.838
5,"CC(C)(C)CNc1c(C#N)cnc2c(C#N)cc(N[C@H](c3cn(C4CC4)nn3)c3cccc4c3CNC4=O)cc12 [Example 76, (S)-6-(((1-cyclopropyl-1H-1,2,3-triazol-4-yl)(1-oxoisoindolin-4-yl)methyl)amino)-4-(neopentylamino)quinoline-3,8-dicarbonitrile]",0.981
6,"[2H][C@](Nc1cc(Cl)c2ncc(C#N)c(NCC(C)(C)C)c2c1)(c1ccc(F)nc1)c1c[nH]nn1 [Example 135, (S)-8-chloro-6-(((6-fluoropyridin-3-yl)(1H-1,2,3-triazol-4-yl)methyl-d)amino)-4-(neopentylamino)quinoline-3-carbonitrile]",0.66

# Other lines, results leading:
row,EC50 [µM],SMILES
1,0.264,"Cc1ncsc1[C@H](Nc1cc(Cl)c2ncc(C#N)c(Nc3ccc(Cl)c(Cl)c3F)c2c1)c1cn(C2COC2)nn1 [Example 217, (R)-8-chloro-4-((3,4-dichloro-2-fluorophenyl)amino)-6-(((4-methylthiazol-5-yl)(1-(oxetan-3-yl)-1H-1,2,3-triazol-4-yl)methyl)amino)quinoline-3-carbonitrile]"
2,0.103,"CC[C@@H](Nc1c(C#N)cnc2c(Cl)cc(N[C@@H](c3cccnc3)c3cn(C4CCCC4)nn3)cc12)c1ccccc1 [Example 213, 8-chloro-6-(((S)-(1-cyclopentyl-1H-1,2,3-triazol-4-yl)(pyridin-3-yl)methyl)amino)-4-(((R)-1-phenylpropyl)amino)quinoline-3-carbonitrile]"
3,0.026,"CC(C)(C)CNc1c(C#N)cnc2c(C#N)cc(N[C@H](c3cn(C4(CF)CC4)nn3)c3cccc4ncsc34)cc12 [Example 441, (S)-6-((benzo[d]thiazol-7-yl(1-(1-(fluoromethyl)cyclopropyl)-1H-1,2,3-triazol-4-yl)methyl)amino)-4-(neopentylamino)quinoline-3,8-dicarbonitrile]"
4,0.04,"CC(C)n1ccc2c([C@H](Nc3cc(Cl)c4ncc(C#N)c(NCC(C)(C)C)c4c3)c3cn(C4(C)CC4)nn3)cccc2c1=O [Example 774, (S)-8-chloro-6-(((2-isopropyl-1-oxo-1,2-dihydroisoquinolin-5-yl)(1-(1-methylcyclopropyl)-1H-1,2,3-triazol-4-yl)methyl)amino)-4-(neopentyl-amino)quinoline-3-carbonitrile]"
5,0.338,"CCN1CCC(n2cc(C(Nc3cc(Cl)c4ncc(C#N)c(Nc5ccc(F)c(Cl)c5)c4c3)c3ncccn3)nn2)CC1 (centres unmarked) [Example 367, 8-chloro-4-((3-chloro-4-fluorophenyl)amino)-6-(((1-(1-ethylpiperidin-4-yl)-1H-1,2,3-triazol-4-yl)(pyrimidin-2-yl)methyl)-amino)quinoline-3-carbonitrile]"
6,0.178,"Cc1ccc([C@H](Nc2cc(Cl)c3ncc(C#N)c(NCC(C)(C)C)c3c2)c2cn(C3(C(F)(F)F)CC3)nn2)c(C)n1 [Example 687, (S)-8-chloro-6-(((2,6-dimethylpyridin-3-yl)(1-(1-(trifluoromethyl)cyclopropyl)-1H-1,2,3-triazol-4-yl)methyl)amino)-4-(neopentylamino)quinoline-3-carbonitrile]"
7,0.609,"CCN1CCC(n2cc([C@@H](Nc3cc(Cl)c4ncc(C#N)c(Nc5ccc(F)c(Cl)c5)c4c3)c3cccs3)nn2)CC1 [Example 380, (R)-8-chloro-4-((3-chloro-4-fluoro-phenyl)amino)-6-(((1-(1-ethylpiperidin-4-yl)-1H-1,2,3-triazol-4-yl)(thiophen-2-yl)methyl)amino)quinoline-3-carbonitrile]"
8,0.235,"Cc1scnc1[C@H](Nc1cc(Cl)c2ncc(C#N)c(Nc3ccc(F)c(Cl)c3)c2c1)c1cn(C2CCN(C(C)(C)C)CC2)nn1 [Example 137, (S)-6-(((1-(1-(tert-butyl)piperidin-4-yl)-1H-1,2,3-triazol-4-yl)(5-methylthiazol-4-yl)methyl)amino)-8-chloro-4-((3-chloro-4-fluorophenyl)amino)quinoline-3-carbonitrile]"

# Same assay, conditions: Homo sapiens, Monocyte, read-out: EC50 TNF, LPS-stimulated human monocytes, TNFα TR-FRET
row,SMILES,EC50 [µM]
1,"COc1ccc([C@H](Nc2cc(C#N)c3ncc(C#N)c(NCC(C)(C)C)c3c2)c2cn(C3(C(F)(F)F)CC3)nn2)cn1 [Example 905, (S)-6-(((6-methoxypyridin-3-yl)(1-(1-(trifluoromethyl)cyclopropyl)-1H-1,2,3-triazol-4-yl)methyl)amino)-4-(neopentylamino)quinoline-3,8-dicarbonitrile]",0.212

# Same assay, conditions: read-out: EC50 TNF; LPS-stimulated human monocytes, TNFα
row,SMILES,EC50 [µM]
1,Cc1nc(F)ccc1[C@H](Nc1cc(Cl)c2ncc(C#N)c(NCC(C)(C)C)c2c1)c1cn(CC(C)(C)C(F)(F)F)nn1 [Example 755],0.365
2,"CC(C)Oc1ncccc1[C@H](Nc1cc(Cl)c2ncc(C#N)c(Nc3ccc(F)c(Cl)c3)c2c1)c1cn(C2CCN(C(C)(C)C)CC2)nn1 [Example 291, (S)-6-(((1-(1-(tert-butyl)piperidin-4-yl)-1H-1,2,3-triazol-4-yl)(2-isopro-poxypyridin-3-yl)methyl)amino)-8-chloro-4-((3-chloro-4-fluorophenyl)-amino)quinoline-3-carbonitrile]",0.478
3,Cc1cc(Cl)ncc1[C@H](Nc1cc(Cl)c2ncc(C#N)c(Nc3ccc(F)c(Cl)c3)c2c1)c1cn(C2CCN(C(C)(C)C)CC2)nn1 [Example 289],0.837

# Same assay, conditions: read-out: EC50 TNF; LPS-stimulated human monocytes, TNFα TR-FRET
row,SMILES,EC50 [µM]
1,"COc1nccc2c([C@H](Nc3cc(Cl)c4ncc(C#N)c(NCC(C)(C)C)c4c3)c3cn([C@@H](C)CF)nn3)cccc12 [Example 932, 8-chloro-6-(((S)-(1-((S)-1-fluoropropan-2-yl)-1H-1,2,3-triazol-4-yl)(1-methoxylsoquinolin-5-yl)methyl)amino)-4-(neopentylamino)quinoline-3-carbonitrile]",0.205

# Same assay, conditions: second value of the cell IC50/EC50; LPS-stimulated human monocytes, TNFα by TR-FRET
row,SMILES,IC50/EC50 [nM]: EC50 (TNFα) [nM]
1,"CCN1CCC(n2cc(CNc3cc(Cl)c4ncc(C#N)c(Nc5ccc(F)c(Cl)c5)c4c3)nn2)CC1 [Comparative Example 1, reference compound]",310
